{"source": "patent US20230212131A1", "about": "“COLLAGEN 1 TRANSLATION INHIBITORS AND METHODS OF USE THEREOF” (Anima Biotech Inc., priority 2020, published 2023)"}
{"tested_on": "collagen 1 (COL1)", "assay": "WI-38 collagen 1 inhibition assay", "assay_type": "cell-based, human", "conditions": "Cellular EC50, WI-38 cells; values are classes of LogEC50", "text": "All compounds were profiled for cellular potency in inhibition of collagen 1 (COL1) protein translation using a phenotypic screening platform.\nWI-38 cells (ATCC® CCL-75™) were maintained in MEM EAGLE (NEAA) W. GLUTAMIN (Biological Industries, Cat. 06-1040-15-1A) containing 10% fetal bovine serum (FBS) and 1% Penicillin-Streptomycin Solution. To synchronize the cells (cell cycle synchronization) prior to induction of collagen synthesis, the cells were starved using DMEM-low glucose supplemented with 0.25% FBS for two hours and then without FBS for 24 hours. To induce collagen synthesis, the cells were treated with a collagen induction cocktail for the indicated time. Compounds were added with induction.\nCells in 96-well or 384-well plates were fixed for 20 min in 4% paraformaldehyde (PFA, ENCO, Cat. sc-281692). Following two washes with 1×PBS, cells were treated with hydrogen peroxide (Acros, Cat: 7722-84-1) for 10 minutes and then washed twice with 1×PBS. Cells were then incubated over-night at 4° C. with Anti-Collagen I (Sigma-Aldrich, Cat: C 2456) antibody and washed three times with 1×PBS. Cells were then incubated with a suitable secondary fluorescently-tagged antibody and nuclei stained with DAPI, for 1 hour, and then washed 3 times with 1×PBS.\nCell images were taken with Operetta (Perkin Elmer, USA), a wide-field fluorescence microscope at 20× magnification. After acquisition, the images were transferred to Columbus software (Perkin-Elmer) for image analysis. In Columbus, cells were identified by their nucleus, using the “Find Nuceli” module and cytoplasm was detected based on the secondary antibody channel. Subsequently, the fluorescent signal was enumerated in the identified cell region. Data was exported to a data analysis and visualization software, Tibco Spotfire, USA."}
{"smiles": "CS(=O)(=O)N1CCN(C2CCC(C(=O)Nc3nc(-c4ccccc4Cl)cs3)CC2)CC1", "note": "(single isomer, unassigned) [Compound 434, (1s,4s)-N-(4-(2-chlorophenyl)thiazol-2-yl)-4-(4-(methylsulfonyl)piperazin-1-yl)cyclohexane-1-carboxamide]", "COL1 Efficacy (LogEC50)": "+ (+: >−5)"}
{"smiles": "CS(=O)(=O)N1CCN(C2CCC(C(=O)Nc3nc(-c4ccccc4Cl)cs3)CC2)CC1", "note": "(single isomer, unassigned) [Compound 435, (1r,4r)-N-(4-(2-chlorophenyl)thiazol-2-yl)-4-(4-(methylsulfonyl)piperazin-1-yl)cyclohexane-1-carboxamide]", "COL1 Efficacy (LogEC50)": "++ (++: −5 to −6)"}
{"smiles": "COc1ccc(C(=O)Nc2nc(-c3ccc(Cl)cc3Cl)cs2)cc1", "note": "[Compound 300, N-(4-(2,4-dichlorophenyl)thiazol-2-yl)-4-methoxybenzamide]", "COL1 Efficacy (LogEC50)": "++ (++: −5 to −6)"}
{"smiles": "COc1ccc(C(=O)Nc2nc(-c3ccc(C)cc3C)cs2)cc1", "note": "[Compound 301, N-(4-(2,4-dimethylphenyl)thiazol-2-yl)-4-methoxybenzamide]", "COL1 Efficacy (LogEC50)": "+++ (+++: <−6)"}
{"smiles": "O=C(Nc1nc(-c2ccc(Cl)cc2Cl)cs1)c1ccccc1", "note": "[Compound 302, N-(4-(2,4-dichlorophenyl)thiazol-2-yl)benzamide]", "COL1 Efficacy (LogEC50)": "++ (++: −5 to −6)"}
{"smiles": "O=C(Nc1nc(-c2ccc(Cl)cc2Cl)cs1)c1ccc(Cl)cc1", "note": "[Compound 303, 4-chloro-N-(4-(2,4-dichlorophenyl)thiazol-2-yl)benzamide]", "COL1 Efficacy (LogEC50)": "+ (+: >−5)"}
{"smiles": "COc1ccc(C(=O)Nc2nc(-c3ccccc3Cl)cs2)cc1", "note": "[Compound 304, N-(4-(2-chlorophenyl)thiazol-2-yl)-4-methoxybenzamide]", "COL1 Efficacy (LogEC50)": "+++ (+++: <−6)"}
{"smiles": "COc1ccc(C(=O)Nc2nc(-c3cc(C)cc(C)c3)cs2)cc1", "note": "[Compound 305, N-(4-(3,5-dimethylphenyl)thiazol-2-yl)-4-methoxybenzamide]", "COL1 Efficacy (LogEC50)": "++ (++: −5 to −6)"}
{"smiles": "O=C(Nc1nc(-c2ccc(Cl)cc2Cl)cs1)C1CCOCC1", "note": "[Compound 306, N-(4-(2,4-dichlorophenyl)thiazol-2-yl)tetrahydro-2H-pyran-4-carboxamide]", "COL1 Efficacy (LogEC50)": "++ (++: −5 to −6)"}
{"smiles": "Cc1ccc(C(=O)Nc2nc(-c3ccc(Cl)cc3Cl)cs2)cc1", "note": "[Compound 307, N-(4-(2,4-dichlorophenyl)thiazol-2-yl)-4-methylbenzamide]", "COL1 Efficacy (LogEC50)": "+++ (+++: <−6)"}
{"smiles": "O=C(Nc1nc(-c2ccc(Cl)cc2Cl)cs1)c1ccc(F)cc1", "note": "[Compound 308, N-(4-(2,4-dichlorophenyl)thiazol-2-yl)-4-fluorobenzamide]", "COL1 Efficacy (LogEC50)": "++ (++: −5 to −6)"}
{"smiles": "COc1ccc(C(=O)Nc2nc(-c3cc(Cl)cc(Cl)c3)cs2)cc1", "note": "[Compound 315, N-(4-(3,5-dichlorophenyl)thiazol-2-yl)-4-methoxybenzamide]", "COL1 Efficacy (LogEC50)": "+++ (+++: <−6)"}
{"smiles": "COc1ccc(C(=O)Nc2nc(-c3cccnc3)cs2)cc1", "note": "[Compound 316, 4-methoxy-N-[4-(3-pyridyl)thiazol-2-yl]benzamide]", "COL1 Efficacy (LogEC50)": "++ (++: −5 to −6)"}
{"smiles": "Cc1ccc(C(=O)Nc2nc(-c3cnn(C)c3)cs2)cn1", "note": "[Compound 317, 6-methyl-N-[4-(1-methylpyrazol-4-yl)thiazol-2-yl]pyridine-3-carboxamide]", "COL1 Efficacy (LogEC50)": "+ (+: >−5)"}
{"smiles": "COc1ncccc1-c1csc(NC(=O)c2ccc(C)nc2)n1", "note": "[Compound 319, N-[4-(2-methoxy-3-pyridyl)thiazol-2-yl]-6-methyl-pyridine-3-carboxamide]", "COL1 Efficacy (LogEC50)": "++ (++: −5 to −6)"}
{"smiles": "COc1ccc(C(=O)Nc2nc(-c3ccc(F)cc3Cl)cs2)cc1", "note": "[Compound 321, N-[4-(2-chloro-4-fluoro-phenyl)thiazol-2-yl]-4-methoxy-benzamide]", "COL1 Efficacy (LogEC50)": "+++ (+++: <−6)"}
{"smiles": "Cc1ccc(C(=O)Nc2nc(-c3cccnc3)cs2)cn1", "note": "[Compound 323, 6-methyl-N-[4-(3-pyridyl)thiazol-2-yl]pyridine-3-carboxamide]", "COL1 Efficacy (LogEC50)": "+ (+: >−5)"}
{"smiles": "COc1ccc(C(=O)Nc2nc(-c3ccc(F)cc3F)cs2)cc1", "note": "[Compound 325, N-[4-(2,4-difluorophenyl)thiazol-2-yl]-4-methoxy-benzamide]", "COL1 Efficacy (LogEC50)": "+++ (+++: <−6)"}
{"smiles": "COc1ccc(C(=O)Nc2nc(-c3cnccc3OC)cs2)cc1", "note": "[Compound 326, 4-methoxy-N-[4-(4-methoxy-3-pyridyl)thiazol-2-yl]benzamide]", "COL1 Efficacy (LogEC50)": "++ (++: −5 to −6)"}
{"smiles": "COCCOc1ccccc1-c1csc(NC(=O)c2ccc(OC)cc2)n1", "note": "[Compound 328, 4-methoxy-N-[4-[2-(2-methoxyethoxy)phenyl]thiazol-2-yl]benzamide]", "COL1 Efficacy (LogEC50)": "++ (++: −5 to −6)"}
{"smiles": "COc1ccc(C(=O)Nc2nc(-c3cnn(C)c3)cs2)cc1", "note": "[Compound 331, 4-methoxy-N-[4-(1-methylpyrazol-4-yl)thiazol-2-yl]benzamide]", "COL1 Efficacy (LogEC50)": "+ (+: >−5)"}
{"smiles": "COc1ccc(C(=O)Nc2nc(-c3cccnc3OC)cs2)cc1", "note": "[Compound 332, 4-methoxy-N-[4-(2-methoxy-3-pyridyl)thiazol-2-yl]benzamide]", "COL1 Efficacy (LogEC50)": "++ (++: −5 to −6)"}
{"smiles": "COc1ccc(C(=O)Nc2nc(-c3cnccc3C)cs2)cc1", "note": "[Compound 333, 4-methoxy-N-[4-(4-methyl-3-pyridyl)thiazol-2-yl]benzamide]", "COL1 Efficacy (LogEC50)": "++ (++: −5 to −6)"}
{"smiles": "O=C(Nc1nc(-c2ccccc2Cl)cs1)c1ccc(N2CCNCC2)cc1", "note": "[Compound 334, N-(4-(2-chlorophenyl)thiazol-2-yl)-4-(piperazin-1-yl)benzamide]", "COL1 Efficacy (LogEC50)": "+++ (+++: <−6)"}
{"smiles": "COc1ccc(C(=O)Nc2nc(-c3cncnc3C)cs2)cc1", "note": "[Compound 335, 4-methoxy-N-[4-(4-methylpyrimidin-5-yl)thiazol-2-yl]benzamide]", "COL1 Efficacy (LogEC50)": "+ (+: >−5)"}
{"smiles": "COc1ccc(C(=O)Nc2nc(-c3ccccc3F)cs2)cc1", "note": "[Compound 336, N-[4-(2-fluorophenyl)thiazol-2-yl]-4-methoxy-benzamide]", "COL1 Efficacy (LogEC50)": "++ (++: −5 to −6)"}
{"smiles": "COc1ccc(C(=O)Nc2nc(-c3cccc4c3OCCO4)cs2)cc1", "note": "[Compound 337, N-[4-(2,3-dihydro-1,4-benzodioxin-5-yl)thiazol-2-yl]-4-methoxy-benzamide]", "COL1 Efficacy (LogEC50)": "++ (++: −5 to −6)"}
{"smiles": "COc1ccc(C(=O)Nc2nc(-c3cncnc3)cs2)cc1", "note": "[Compound 338, 4-methoxy-N-(4-pyrimidin-5-ylthiazol-2-yl)benzamide]", "COL1 Efficacy (LogEC50)": "+ (+: >−5)"}
{"smiles": "Cc1ccc(C(=O)Nc2nc(-c3cncnc3)cs2)cn1", "note": "[Compound 340, 6-methyl-N-(4-pyrimidin-5-ylthiazol-2-yl)pyridine-3-carboxamide]", "COL1 Efficacy (LogEC50)": "+++ (+++: <−6)"}
{"smiles": "COCCOc1ccccc1-c1csc(NC(=O)c2ccc(C)nc2)n1", "note": "[Compound 341, N-[4-[2-(2-methoxyethoxy)phenyl]thiazol-2-yl]-6-methyl-pyridine-3-carboxamide]", "COL1 Efficacy (LogEC50)": "++ (++: −5 to −6)"}
{"smiles": "Cc1ccc(C(=O)Nc2nc(-c3cccc4c3OCCO4)cs2)cn1", "note": "[Compound 342, N-[4-(2,3-dihydro-1,4-benzodioxin-5-yl)thiazol-2-yl]-6-methyl-pyridine-3-carboxamide]", "COL1 Efficacy (LogEC50)": "++ (++: −5 to −6)"}
{"smiles": "COc1ccc(C(=O)Nc2nc(-c3cccnc3C)cs2)cc1", "note": "[Compound 343, 4-methoxy-N-[4-(2-methyl-3-pyridyl)thiazol-2-yl]benzamide]", "COL1 Efficacy (LogEC50)": "+++ (+++: <−6)"}
{"smiles": "Cc1ccc(C(=O)Nc2nc(-c3cccnc3C)cs2)cn1", "note": "[Compound 344, 6-methyl-N-[4-(2-methyl-3-pyridyl)thiazol-2-yl]pyridine-3-carboxamide]", "COL1 Efficacy (LogEC50)": "+++ (+++: <−6)"}
{"smiles": "Cc1ccc(C(=O)Nc2nc(-c3cncnc3C)cs2)cn1", "note": "[Compound 347, 6-methyl-N-[4-(4-methylpyrimidin-5-yl)thiazol-2-yl]pyridine-3-carboxamide]", "COL1 Efficacy (LogEC50)": "++ (++: −5 to −6)"}
{"smiles": "O=C(Nc1nc(-c2ccccc2Cl)co1)c1ccc(N2CCOCC2)cc1", "note": "[Compound 368, N-[4-(2-chlorophenyl)oxazol-2-yl]-4-morpholino-benzamide]", "COL1 Efficacy (LogEC50)": "++ (++: −5 to −6)"}
{"smiles": "O=C(Nc1nc(-c2ccccn2)cs1)c1ccc(N2CCOCC2)cc1", "note": "[Compound 370, 4-morpholino-N-[4-(2-pyridyl)thiazol-2-yl]benzamide]", "COL1 Efficacy (LogEC50)": "+ (+: >−5)"}
{"smiles": "COCCC(=O)N1CCN(c2ccc(C(=O)Nc3nc(-c4ccccc4Cl)cs3)cc2)CC1", "note": "[Compound 376, N-(4-(2-chlorophenyl)thiazol-2-yl)-4-(4-(3-methoxypropanoyl)piperazin-1-yl)benzamide]", "COL1 Efficacy (LogEC50)": "+++ (+++: <−6)"}
{"smiles": "COCCN1CCN(c2ccc(C(=O)Nc3nc(-c4ccccc4Cl)cs3)cc2)CC1", "note": "[Compound 377, N-(4-(2-chlorophenyl)thiazol-2-yl)-4-(4-(2-methoxyethyl)piperazin-1-yl)benzamide]", "COL1 Efficacy (LogEC50)": "+++ (+++: <−6)"}
{"smiles": "COCCOc1ccccc1-c1csc(NC(=O)c2ccc(N3CCOCC3)cc2)n1", "note": "[Compound 378, N-(4-(2-(2-methoxyethoxy)phenyl)thiazol-2-yl)-4-morpholinobenzamide]", "COL1 Efficacy (LogEC50)": "+ (+: >−5)"}
